Values of other authors in patent US20220400744A1, “POUCHED PRODUCT COMPRISING DISSOLVABLE COMPOSITION” (NICOVENTURES TRADING LIMITED, priority 2021, published 2022).
Where two headings read alike, the source gives them in different places.

Columns and labels:
[1] = for solubility in water / aqueous environment: water or aqueous environment (e.g., saliva)
[2] = for logP: Table 1, partition coefficient between octanol and water
[3] = when isolated; isomerizes to trans-bixin

| solubility in water / aqueous environment [1] | Molecule | logP [2] | further results |
| --- | --- | --- | --- |
| water soluble | CC(/C=C/C=C(C)/C=C/C(=O)O)=C\C=C\C=C(C)\C=C\C=C(C)\C=C\C(=O)O (stereo in doubt) [norbixin, (2E,4E,6E,8E,10E,12E,14E,16E,18E)-4,8,13,17-tetramethylicosa-2,4,6,8,10,12,14,16,18-nonaenedioic acid] | – | – |
| insoluble | COC(=O)/C=C/C(C)=C\C=C\C(C)=C\C=C\C=C(C)\C=C\C=C(C)\C=C\C(=O)O [bixin, (2E,4E,6E,8E,10E,12E,14E,16Z,18E)-20-methoxy-4,8,13,17-tetramethyl-20-oxoicosa-2,4,6,8,10,12,14,16,18-nonaenoic acid] | – | solubility in fats and alcohols ([1]; fats and alcohols): soluble; chemical stability [3]: chemically unstable |
| – | CC(C)[C@@H]1CC[C@@H](C)C[C@H]1OC(=O)CCC(=O)O [monomenthyl succinate] | 3 | – |
| – | CN1CCCC1c1cccnc1 (centres unmarked) [nicotine, reference compound] | – | partitioning into octanol ([2]; acidic pH, about 6.5 to about 4, protonated form): lower partitioning into octanol; partitioning into octanol ([2]; alkaline pH, about 7.5 to about 9, free base form): high partitioning into octanol |
| – | ethyl benzoic acid | 2.9 | – |
| – | isopropyl benzoic acid | 3.5 | – |

| Molecule | solubility in water / aqueous environment [1] | logP [2] | further results |
| --- | --- | --- | --- |
| C=C(C)[C@@H]1CCC(C)=C[C@H]1c1c(O)cc(CCCCC)cc1O [CBD, cannabidiol, reference compound] | insoluble | – | logP value ([2]; CBD): about 6.5 |
